Data reported in patent publication US20200131558A1, “PAPER-BASED ASSAY FOR ANTIMICROBIAL RESISTANCE” (Colorado State University Research Foundation, priority 2017, published 2020).
One block for each compound: values may come before it.

Key:
[1] = test system: Chromobacterium violaceum; experiment: Antibiotic susceptibility testing (MIC, VITEK 2 microdilution); type: cell-based; conditions: C. violaceum isolate from influent of urban sewage water
Experimental: To determine antibiotic susceptibility of Chromobacterium violaceum and the 32 E. coli isolates, each isolate was subjected to antibiotic susceptibility testing [VITEK 2™ Biomerieux, USA] using microdilution and photometric determination of growth at the Colorado State University Veterinary Diagnostic Laboratory located in Fort Collins, Colo., US. […] The antibiotics that were tested against C. violaceum included amikacin, amoxicillin-clavulanate, ampicillin, cefazolin, cefpodoxime, ceftazidime, cephalothin, imipenem, ticarcillin, and ticarcillin-clavulanate. Antibiotics tested against each E. coli isolate included amoxicillin, ampicillin, cefalexin, cefovecin, cefpodoxime, ceftiofur, piperacillin, ceftazidime, cefotaxime, and imipenem.

β-lactamase = conditions: on paper, ~22° C., 1 U/mL β-lactamase, Lineweaver-Burk plot
Experimental: Nitrocefin [VWR International], a chromogenic cephalosporin, was used for detection of β-lactamase because of the distinct color change from yellow to red in the presence of the enzyme, making it a user-friendly platform. […] Aliquots of 9.68 mM nitrocefin was frozen at −20° C. in amber microcentrifuge tubes [VWR International]. These tubes were used to minimize degradation from UV exposure. Aliquots were taken out and allowed to thaw and warm to room temperature. Nitrocefin was further diluted with pH 7.4 phosphate buffered saline (PBS) [1.37 M NaCl, 0.027 M of KCl, 0.1 M Na2HPO4, and 0.018 M KH2PO4] to a concentration of 0.5 mM for each experiment (except for nitrocefin concentration optimization where 0.5 mM was selected). During pH optimization experiments, nitrocefin was diluted in pH buffers ranging from pH 6 to pH 9. Recombinant β-lactamase was purchased at a concentration of 1,500 U/mg [Abcam] and was initially dissolved in dH2O and aliquoted and frozen. […]
In order to quantify the concentration of nitrocefin that was hydrolyzed every minute, a calibration curve was generated by quantifying the red product after the reaction had completed, and plotting green light intensity vs. product concentration. […] The calculated Vmax and Km values were carried out in the Michaelis-Menten equation to obtain a theoretical kinetic curve to compare to data points.

[2] = type: physicochemical
[3] = test system: C. violaceum's β-lactamase; experiment: Paper-based test on intact bacterial isolates; type: cell-based, Chromobacterium violaceum; conditions: intact bacteria, 0.5 mM nitrocefin, 2 hr
Experimental: Bacterial isolates were obtained from grab samples in the field, except for influent. Field samples include influent, effluent, surface water from a river and sewage samples from city sewers. All samples were plated by pipetting 50-100 μL on various clinical agars [CHROMagar™ Orientation, CHROMagar™ ESBL, and CHROMagar™ KPC]. Bacterial isolates were purified by selecting a single colony with an inoculating loop and spreading the colony on the same kind of agar the colony was selected from, or was spread onto a MacConkey agar plate [Difco]. To remove potential inhibitors before any testing, they were further subcultured onto non selective agar [Tryptic Soy Agar, Thermo Scientific™ Remel™] and then grown in a nutrient broth [Tryptic Soy Broth, Thermo Scientific™ Remel™, Soybean Casein Digest] at 37° C. and 2% CO2. After replenishing the nutrient broth, all bacteria isolates were grown using a shaker for 12-18 hr depending on bacteria growth rate. They were also re-plated on ESBL plates to confirm resistance mechanisms. The isolates were given to the tester blind for accurate, unbiased results. Bacteria were not lysed before reacting 20 μL of bacteria solution with 20 μL of 0.5 mM nitrocefin. Images were obtained after 2 hr of reaction.

[4] = test system: Chromobacterium violaceum; experiment: Growth on ampicillin-containing agar plate; type: cell-based; conditions: C. violaceum isolate

- resistance/susceptibility of isolate (MIC interpreted per CLSI) [1]: resistant
SMILES: Cc1nnc(SCC2=C(C(=O)O)N3C(=O)[C@@H](NC(=O)Cn4cnnn4)[C@H]3SC2)s1 [cefazolin]

SMILES: O=C(Cc1cccs1)N[C@@H]1C(=O)N2C(C(=O)O)=C(/C=C/c3ccc([N+](=O)[O-])cc3[N+](=O)[O-])CS[C@H]12 [nitrocefin]
- Km (β-lactamase): 293 ± 13 µM
- Vmax (β-lactamase): 0.0285 ± 0.0012 mM/min
- solubility in water [2]: insoluble in water
- reaction with the isolate's β-lactamase (color change) [3]: did not react

SMILES: CC1(C)S[C@@H]2[C@H](NC(=O)[C@H](N)c3ccccc3)C(=O)N2[C@H]1C(=O)O [ampicillin]
- growth on ampicillin-containing agar plate [4]: did not grow

- resistance/susceptibility of isolate (MIC interpreted per CLSI) [1]: resistant
SMILES: CC(=O)OCC1=C(C(=O)O)N2C(=O)[C@@H](NC(=O)Cc3cccs3)[C@H]2SC1 [cephalothin]

- resistance/susceptibility of isolate (MIC interpreted per CLSI) [1]: susceptible
SMILES: CC1(C)S[C@@H]2[C@H](NC(=O)[C@H](C(=O)O)c3ccsc3)C(=O)N2[C@H]1C(=O)O [ticarcillin]

- resistance/susceptibility of isolate (MIC interpreted per CLSI) [1]: susceptible
SMILES: CC1(C)S[C@@H]2[C@H](NC(=O)[C@H](N)c3ccc(O)cc3)C(=O)N2[C@H]1C(=O)O [amoxicillin]
